Test system: STAM model of Non-alcoholic Steatohepatitis
Assay: in vivo efficacy study of 15-OHEPA and EPA in STAM model of non-alcoholic steatohepatitis
Parameters: species or system C57BL/6 mice
Settings: for liver weight as compared to the vehicle control: FIG. 1.2; for NAFLD Activity score (NAS) as compared to the vehicle control: HE staining, FIGS. 2.1 and 2.2
Text: The purpose of this study was to examine the effects of 15-OHEPA and EPA in the STAM model of Non-alcoholic Steatohepatitis. Pathogen-free15-day-pregnant C57BL/6 mice were obtained from Charles River Laboratories in Japan Inc. (Kanagawa, Japan). NASH was established in male mice by a single subcutaneous injection of streptozotocin (STZ) (Sigma, USA) after birth and feeding with a high fat diet (HFD; CLEA) Japan, Japan) ad libitum after 4 weeks of age (day 28±2). Mice were randomized into 5 groups of 8 mice at 5 weeks of age (day 35±2) the day before the start of treatment. During the treatment period, individual body weight was measured daily as well as clinical signs of behavior and survival. Group 1 (Vehicle): Eight NASH mice were orally administered vehicle [olive oil] in a volume of 10 mL/kg once daily from 5 to 9 weeks of age. Group 2 (15-OHEPA 50 mg/kg): Eight NASH mice were orally administered vehicle supplemented with 15-OHEPA at a dose of 50 mg/kg once daily from 5 to 9 weeks of age. Group 3 (15-OHEPA 500 mg/kg): Eight NASH mice were orally administered vehicle supplemented with 15-OHEPA at a dose of 500 mg/kg once daily from 5 to 9 weeks of age. Group 4 (EPA 500 mg/kg): Eight NASH mice were orally administered vehicle supplemented with EPA at a dose 500 mg/kg once daily from 5 to 9 weeks of age. Group 5 (positive control): Eight NASH mice were orally administered pure water supplemented with Telmisartan at a dose of 10 mg/kg once daily from 5 to 9 weeks of age. At 9 weeks of age, all mice were sacrificed and the following data was recorded; • Individual liver weight • Liver to body weight ratio Histopathological analyses of liver sections were performed using HE staining (to estimate NAFLD Activity score). For HE staining, sections were cut from paraffin blocks of liver tissue prefixed in Bouin's solution and stained with Lillie-Mayer's Hematoxylin (Muto Pure Chemicals, Japan) and eosin solution (Wako Pure Chemical Industries). NAFLD Activity score (NAS) was calculated according to the criteria of Kleiner (Kleiner D E. et al., Hepatology, 2005; 41:1313). Statistical tests were performed using Bonferroni Multiple Comparison Test. P values <0.05 were considered statistically significant.

[1] = positive control, Telmisartan 10 mg/kg oral once daily from 5 to 9 weeks of age
[2] = 15-OHEPA 500 mg/kg oral once daily from 5 to 9 weeks of age

| SMILES | liver weight as compared to the vehicle control [1] | NAFLD Activity score (NAS) as compared to the vehicle control [1] | liver weight as compared to the vehicle control [2] | NAFLD Activity score (NAS) as compared to the vehicle control [2] | potency in the treatment of FLD relative to EPA (summary statement) |
| --- | --- | --- | --- | --- | --- |
| CCCc1nc2c(C)cc(-c3nc4ccccc4n3C)cc2n1Cc1ccc(-c2ccccc2C(=O)O)cc1 [telmisartan, Telmisartan, reference compound] | significant reduction | significantly decreased |  |  |  |
| CCC=CCC(O)C=CC=CCC=CCC=CCCCC(=O)O (centres unmarked) [15-OHEPA, 15-Hydroxy-eicosa-5,8,11,13,17-pentaenoic acid] |  |  | significant reduction | significantly decreased | more potent than EPA |

From patent US10813903B2, “Compositions comprising 15-HEPE and methods of using the same” (Afimmune Limited, priority 2013, dated 2020)
